Consider four compounds from patent US7341836B2, “Modified cyclic nucleotide gated ion channels” (The Regents of the University of Colorado, priority 2001, dated 2008).

Entries after “also recorded” stand apart in the source; their conditions may differ. A value given as a limit tells only on which side of the number the result lay.

The subject of experiment [1] is PDE activity in GH4C1 cells. The experiment in a line: Effect of PDE inhibitors, forskolin and VIP on cAMP levels (Ca2+ influx through CNG channels). The format is cell-based, rat. Conditions: for Ca2+ influx induced by the PDE inhibitor alone (basal cAMP) / d(ΔF/F0)/dt: C460W/E583M channels; for Ca2+ influx induced by the PDE inhibitor alone (basal cAMP): no AC stimulation; for d(ΔF/F0)/dt: basal cAMP, inhibitor concentration (μM); for effect on forskolin-induced Ca2+ influx / PDE activity: Δ61-90/C460W/E583M channels, 10 μM forskolin. Summed up: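 GH4C1 rat pituitary cells expressing high-affinity C460W/E583M or Δ61-90/C460W/E583M CNG channels (adenovirus), with 1 μM nimodipine at time zero; cAMP read as Ca2+ influx rate d(ΔF/F0)/dt. PDE inhibitors or 100 μM IBMX added at 60 s, then 10 μM forskolin or 100 nM VIP at 240 s; mean±SE.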

The subject of experiment [2] is PDE I. The conditions noted are these: cited from earlier work.
The target in experiment [3] is T1, PDE II (Homo sapiens, UniProt O00408).
T1 construct: host or cells: heterologously expressed human PDE; human heart
T1 sequence (O00408 whole entry): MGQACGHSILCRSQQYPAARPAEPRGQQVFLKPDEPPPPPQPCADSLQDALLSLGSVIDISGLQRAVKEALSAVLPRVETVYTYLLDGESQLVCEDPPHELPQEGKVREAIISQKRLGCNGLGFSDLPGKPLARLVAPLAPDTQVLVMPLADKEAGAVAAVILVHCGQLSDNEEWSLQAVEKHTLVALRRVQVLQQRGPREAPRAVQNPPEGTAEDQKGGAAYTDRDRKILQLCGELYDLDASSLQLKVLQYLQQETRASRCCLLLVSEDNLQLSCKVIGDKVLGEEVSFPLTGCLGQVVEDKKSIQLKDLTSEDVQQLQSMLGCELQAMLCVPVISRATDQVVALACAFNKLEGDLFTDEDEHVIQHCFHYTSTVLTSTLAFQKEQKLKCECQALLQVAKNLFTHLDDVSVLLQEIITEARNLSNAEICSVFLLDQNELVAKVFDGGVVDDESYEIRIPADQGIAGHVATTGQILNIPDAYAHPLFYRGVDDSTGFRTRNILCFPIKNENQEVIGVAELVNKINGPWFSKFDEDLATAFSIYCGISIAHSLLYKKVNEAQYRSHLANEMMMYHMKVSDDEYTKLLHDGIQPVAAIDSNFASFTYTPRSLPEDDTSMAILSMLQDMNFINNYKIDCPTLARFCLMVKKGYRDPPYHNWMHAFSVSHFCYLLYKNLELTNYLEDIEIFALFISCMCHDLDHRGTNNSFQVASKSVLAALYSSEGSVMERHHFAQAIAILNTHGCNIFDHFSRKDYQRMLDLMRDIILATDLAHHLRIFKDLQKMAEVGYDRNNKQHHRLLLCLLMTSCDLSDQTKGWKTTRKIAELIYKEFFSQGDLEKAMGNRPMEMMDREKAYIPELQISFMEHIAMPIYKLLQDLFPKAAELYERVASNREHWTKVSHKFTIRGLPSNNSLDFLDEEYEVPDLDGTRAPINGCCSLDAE
The conditions noted are these: read-out: IC50, PDE II; cited from earlier work.

Experiment [4] concerns the target T2, PDE VIII (Mus musculus, UniProt O88502).
T2 construct: host or cells: heterologously expressed
T2 sequence (O88502 1-823): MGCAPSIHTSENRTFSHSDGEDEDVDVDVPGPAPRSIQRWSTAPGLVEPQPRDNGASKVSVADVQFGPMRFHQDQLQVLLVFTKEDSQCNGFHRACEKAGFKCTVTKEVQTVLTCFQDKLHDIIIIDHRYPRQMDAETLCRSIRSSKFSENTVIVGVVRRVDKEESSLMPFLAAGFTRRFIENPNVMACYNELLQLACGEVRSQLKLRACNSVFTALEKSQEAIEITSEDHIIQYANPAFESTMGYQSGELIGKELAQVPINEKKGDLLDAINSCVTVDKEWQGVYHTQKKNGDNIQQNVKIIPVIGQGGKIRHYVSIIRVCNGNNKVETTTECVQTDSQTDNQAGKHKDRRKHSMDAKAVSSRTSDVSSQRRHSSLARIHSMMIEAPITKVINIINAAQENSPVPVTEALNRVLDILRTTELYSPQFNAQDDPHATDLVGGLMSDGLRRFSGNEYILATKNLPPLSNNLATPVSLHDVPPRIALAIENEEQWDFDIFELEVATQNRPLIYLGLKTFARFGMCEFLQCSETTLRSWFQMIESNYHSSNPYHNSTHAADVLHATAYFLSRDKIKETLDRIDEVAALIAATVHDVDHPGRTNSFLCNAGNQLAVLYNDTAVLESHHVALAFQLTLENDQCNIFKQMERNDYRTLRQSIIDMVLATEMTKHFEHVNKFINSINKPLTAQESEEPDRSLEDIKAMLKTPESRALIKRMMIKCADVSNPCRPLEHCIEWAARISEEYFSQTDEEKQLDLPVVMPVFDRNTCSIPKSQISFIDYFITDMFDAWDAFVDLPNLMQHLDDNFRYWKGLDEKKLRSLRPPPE
The conditions noted are these: cited from earlier work.

With `COc1ccc(C2CNC(=O)C2)cc1OC1CCCC1` (centres unmarked) [Rolipram], in experiment [1], the “Ca2+ influx induced by the PDE inhibitor alone (basal cAMP)” value was “No RO-20-1724- or rolipram-sensitive PDE was observed”, the “d(ΔF/F0)/dt” value is 0 s⁻¹ and the “effect on forskolin-induced Ca2+ influx / PDE activity” value is “also inhibited PDE activity; also recorded: increase forskolin-induced Ca^2+ influx through CNG channels”. In experiment [2], the IC50 is over 150 µM. Also, the IC50 in experiment [3] was over 100 µM. Further, the IC50 in experiment [4] was over 200 µM.
Consider `CCCCCC[C@@H]([C@@H](C)O)n1cnc2c(N)ncnc21` (racemic) [EHNA], for which, in experiment [1], the “d(ΔF/F0)/dt” value came out at 0.0029 ± 0.0011 s⁻¹. Further, the IC50 in experiment [3] is 0.5 to 1 µM; in experiment [4], over 100 µM.
Take `CCCCOc1cc(CC2CNC(=O)N2)ccc1OC` (centres unmarked) [RO-20-1724, 4-(3-butoxy-4-methoxybenzyl)-2-imidazolidinone]: in experiment [1], the “Ca2+ influx induced by the PDE inhibitor alone (basal cAMP)” value was “No RO-20-1724- or rolipram-sensitive PDE was observed”, the “d(ΔF/F0)/dt” value turned out to be 0 s⁻¹ and the “effect on forskolin-induced Ca2+ influx / PDE activity” value is “also inhibited PDE activity; also recorded: increase forskolin-induced Ca^2+ influx through CNG channels”. In experiment [2], the IC50 was 200 µM. Further, the IC50 in experiment [3] is over 100 µM. For the same compound, in experiment [4], the IC50 was over 200 µM.
With `CC(C)Cn1c(=O)n(C)c(=O)c2[nH]cnc21` [IBMX, 3-isobutyl-1-methylxanthine], the “Ca2+ influx induced by the PDE inhibitor alone (basal cAMP)” value in experiment [1] was “induced Ca^2+ influx through CNG channels”. Further, in experiment [1], the “effect on forskolin-induced Ca2+ influx / PDE activity” value is recorded as “significantly inhibited PDE activity; also recorded: increase forskolin-induced Ca^2+ influx through CNG channels”. Besides, the IC50 was 2 to 3 µM in experiment [2], 20 to 50 µM in experiment [3] and over 200 µM in experiment [4].
